What was measured:
T cell [1] = test: Test on T cell blast transformation reaction (2), compound added to spleen cell culture; format: cell-based, C3H/He mice; conditions: for Relative activity (%): Concanavalin A 1.0 µg/ml, without compound = 100
Experimental: Cells of spleen were obtained in the same manner as in Example 38 except that OPQ was not administered using five C3H/He mice (male, 7 weeks old, average body weight of 20 g, supplied by Japan Charles Liver Co.).
Then, the cells were suspended in RPMI medium at 4 x 10^6 cells/ml and the suspension was put in a flat bottom microplate of 96 holes. Culture was carried out in the air containing 5 % of CO2 at 37°C using 1.0 µg/ml of concanavalin A as mitogen with addition of 0.5 or 2.0 µg/ml of OPQ. After 63 hours from starting of culture, ^3H-thymidine was added at 2.5 µCi/ml and culture was carried out for further 9 hours. Thereafter, cells were gathered on a glass fiber filter by cell harvester and ^3H on the filter was measured by a liquid scintillation counter.
As control, same four cultures were conducted under respective conditions without adding concanavalin A or OPQ. Values in the table are average values of intake amount (cpm) of ^3H in culture under four same conditions. Activity acceleration effect of OPQ was not recognized when concanavalin A was not added, but activity acceleration effect of OPQ was recognized when concanavalin A was added.
(§1) In Examples 36 - 40, macrophage activity was examined according to chemotaxis of peritoneal macrophage (literature 1) and activity of T cell and that of B cell were examined according to blast transformation reaction using concanavalin A and lipopolysaccharide, (LPS) as mitogen (literature 2). Literature 1: "Function of Macrophage and Method of Measurement of Function", pages 61-65 1985), edited by Educational Committee of Japan Bacteriological Society and published from Saikon Shuppan Co.) Literature 2: "New Method of Searching of Function of Lymphocytes", pages 350-355 (1987) edited by Junichi Yada and Michio Fujiwara and published from Chugai Igaku Co.

T cell [2] = test: Test on T cell blast transformation reaction (1), spleen cells of treated mice; format: in vivo, C3H/He mouse; conditions: for Relative activity (%): no administration = 100
Experimental: In the same manner as in Example 36, OPQ was administered to C3H/He mouse and the mouse was bred. Dosage of OPQ for one administration per one mouse was 0.2 ml of OPQ solution containing 0.5 mg/ml of OPQ for group B and 0.2 ml of the solution containing 1.0 mg/ml of OPQ for group C and 0.2 ml of physiological saline was administered for group A.
On the 8th day from starting of experiment, mouse was anesthetized with ether and blood was drawn from carotid artery and spleen was aseptically extracted.
Cells of the spleen of respective groups were broken up and these cells were floated on tris-NH4Cl hemolytic solution warmed to 37°C and left for 5 minutes at 37°C to hemolyze erythrocytes, followed by washing twice with cold Hanks solution. The cells were suspended in RPMI medium at 4 x 10^6 cells/ml and the suspension was put in a flat bottom microplate of 96 holes. Culture was carried out in the air containing 5 % of CO2 at 37°C using concanavalin A (Type IV Sigma C2010) in an amount of 0.5 µg/ml or 2 µg/ml as mitogen. After 63 hours from starting of culture, ^3H-thymidine was added in an amount of 2.5 µci/ml and culturing was carried out for further 9 hours. Thereafter, cells were gathered on a glass fiber filter by cell harvester and ^3H on this filter was measured by a liquid scintillation counter.
As control, same four culturings were conducted under the same conditions without adding concanavalin A.
Values in the table are average values of intake amount (cpm) of ^3H in culture under four same conditions.
as §1

cataract = test: Anti-cataract effect, intraperitoneal administration, 50 % galactose fed rats; format: in vivo, Sprague-Davley rats; conditions: 2 mg, 5 mg, 10 mg and 20 mg per 1 kg of rat intraperitoneally once a day
Experimental: Eightyfour male Sprague-Davley rats (supplied from Japan Charles Liver Co.) of four weeks old and having a body weight of 70 - 80 g were used and the following experiments were conducted. One group consisted of six rats.
The groups included normal group, 50 % galactose administration group, PQQ administration group, and OPQ administration group. Commercially available feeding stuff (manufactured by Japan Clea Co.) was given to the rats of normal group, and rats of 50 % galactose administration group, PQQ administration group and OPQ administration group were allowed to freely take powdery feeding stuff comprising a mixture of the above-mentioned commercially available powder feeding stuff and D-galactose for food additive in equal weight.
To the rats of PQQ and OPQ administration groups were intraperitoneally administered PQQ·2Na or OPQ in a dosage of 2 mg, 5 mg, 10 mg and 20 mg per 1 kg of rat once a day simultaneously with starting of galactose feeding and until termination of feeding.
On the 6th day and the 9th day from starting of experiment, eyeball was observed by stereoscopic microscope and judgment on cataract was made according to the following criteria. A0: No muddiness (normal) A1: Light white muddiness in the surface portion. A2: A slight heavy white muddiness in the surface portion. A3: Heavy white muddiness in the surface portion. A4: Heavy white muddiness in the surface portion and a slight white muddiness in the core portion. A5: Heavy white muddiness in the surface portion and the core portion.

B cell = test: Test on B cell blast transformation reaction, spleen cells of treated mice; format: in vivo, C3H/He mice; conditions: for Relative activity (%): no administration = 100
Experimental: Cells of spleen of C3H/He mice to which OPQ was administered were obtained in the same manner as in Example 38.
Further, intake amount of ^3H-thymidine was examined in the same manner as in Example 38 except that 25 µg/ml or 50 µg/ml of lipopolysaccharide (LPS WE E. coli 0111, Difco) was used in place of the concanavalin A as mitogen. Values in the table are average values of intake amount (cpm) of ^3H in culture under four same conditions.
as §1

Compound: O=C(O)c1cc(C(=O)O)c2c(n1)c1ncoc1c1cc(C(=O)O)[nH]c12 [OPQ, oxazopyrroloquinoline]
- Relative activity (%) (T cell [1]; 0.5 µg/ml added to culture): 146%
- intake amount (cpm) of ^3H (T cell [1]; 0.5 µg/ml added to culture, concanavalin 0 µg/ml, without compound 2077): 1946 cpm
- intake amount (cpm) of ^3H (T cell [1]; 0.5 µg/ml added to culture, concanavalin 1.0 µg/ml, without compound 89091): 130775 cpm
- Relative activity (%) (T cell [1]; 2.0 µg/ml added to culture): 130%
- intake amount (cpm) of ^3H (T cell [1]; 2.0 µg/ml added to culture, concanavalin 0 µg/ml, without compound 2077): 2031 cpm
- intake amount (cpm) of ^3H (T cell [1]; 2.0 µg/ml added to culture, concanavalin 1.0 µg/ml, without compound 89091): 116093 cpm
- Relative activity (%) (T cell [2]; 5 mg/kg mouse x 7 days, Concanavalin A 0.5µg/ml): 137%
- Relative activity (%) (T cell [2]; 5 mg/kg mouse x 7 days, Concanavalin A 2.0µg/ml): 146%
- intake amount (cpm) of ^3H (T cell [2]; 5 mg/kg mouse x 7 days, concanavalin 0 µg/ml, no administration 7312): 10796 cpm
- intake amount (cpm) of ^3H (T cell [2]; 5 mg/kg mouse x 7 days, concanavalin 0.5 µg/ml, no administration 11637): 15942 cpm
- intake amount (cpm) of ^3H (T cell [2]; 5 mg/kg mouse x 7 days, concanavalin 2 µg/ml, no administration 96188): 140376 cpm
- Relative activity (%) (T cell [2]; 10 mg/kg mouse x 7 days, Concanavalin A 0.5µg/ml): 189%
- Relative activity (%) (T cell [2]; 10 mg/kg mouse x 7 days, Concanavalin A 2.0µg/ml): 150%
- intake amount (cpm) of ^3H (T cell [2]; 10 mg/kg mouse x 7 days, concanavalin 0 µg/ml, no administration 7312): 9124 cpm
- intake amount (cpm) of ^3H (T cell [2]; 10 mg/kg mouse x 7 days, concanavalin 0.5 µg/ml, no administration 11637): 21965 cpm
- intake amount (cpm) of ^3H (T cell [2]; 10 mg/kg mouse x 7 days, concanavalin 2 µg/ml, no administration 96188): 144171 cpm
- rats died (cataract): no rats died
- Relative activity (%) (B cell; 5mg/kg mouse x 7 days, Lipopolysaccharide 25 µg/ml): 108%
- Relative activity (%) (B cell; 5mg/kg mouse x 7 days, Lipopolysaccharide 50 µg/ml): 109%
- intake amount (cpm) of ^3H (B cell; 5mg/kg mouse x 7 days, Lipopolysaccharide (LPS) 0 µg/ml, no administration 6562): 9303 cpm
- intake amount (cpm) of ^3H (B cell; 5mg/kg mouse x 7 days, Lipopolysaccharide (LPS) 25 µg/ml, no administration 34557): 37434 cpm
- intake amount (cpm) of ^3H (B cell; 5mg/kg mouse x 7 days, Lipopolysaccharide (LPS) 50 µg/ml, no administration 42247): 46193 cpm
- Relative activity (%) (B cell; 10mg/kg mouse x 7 days, Lipopolysaccharide 25 µg/ml): 121%
- Relative activity (%) (B cell; 10mg/kg mouse x 7 days, Lipopolysaccharide 50 µg/ml): 126%
- intake amount (cpm) of ^3H (B cell; 10mg/kg mouse x 7 days, Lipopolysaccharide (LPS) 0 µg/ml, no administration 6562): 9301 cpm
- intake amount (cpm) of ^3H (B cell; 10mg/kg mouse x 7 days, Lipopolysaccharide (LPS) 25 µg/ml, no administration 34557): 41876 cpm
- intake amount (cpm) of ^3H (B cell; 10mg/kg mouse x 7 days, Lipopolysaccharide (LPS) 50 µg/ml, no administration 42247): 53267 cpm

Reference: EP0429333B1, “Process for producing oxazopyrroloquinolines, novel oxazopyrroloquinolines, and use of oxazopyrroloquinolines” (priority 1989, dated 1991)
